Laboratory results published in patent US20260183275A1, “SUBSTITUTED QUINOLONE COMPOUNDS USEFUL AS INHIBITORS OF TLR9” (Bristol-Myers Squibb Company, priority 2022, published 2026).

How the values were obtained:
Format in all cases: cell-based
human TLR8 = biological target: T1, human TLR8 (Homo sapiens, UniProt Q9NR97); experiment: TLR8 inhibition reporter assay (HEK-Blue cells, SEAP reporter); conditions: HEK-Blue cells overexpressing human TLR8; stimulated with R848 15.9 μM; SEAP read after 22 hour; dose range 0.05 nM-50 μM
T1 construct: host or cells: HEK-Blue cells
T1 sequence (Q9NR97 27-1041): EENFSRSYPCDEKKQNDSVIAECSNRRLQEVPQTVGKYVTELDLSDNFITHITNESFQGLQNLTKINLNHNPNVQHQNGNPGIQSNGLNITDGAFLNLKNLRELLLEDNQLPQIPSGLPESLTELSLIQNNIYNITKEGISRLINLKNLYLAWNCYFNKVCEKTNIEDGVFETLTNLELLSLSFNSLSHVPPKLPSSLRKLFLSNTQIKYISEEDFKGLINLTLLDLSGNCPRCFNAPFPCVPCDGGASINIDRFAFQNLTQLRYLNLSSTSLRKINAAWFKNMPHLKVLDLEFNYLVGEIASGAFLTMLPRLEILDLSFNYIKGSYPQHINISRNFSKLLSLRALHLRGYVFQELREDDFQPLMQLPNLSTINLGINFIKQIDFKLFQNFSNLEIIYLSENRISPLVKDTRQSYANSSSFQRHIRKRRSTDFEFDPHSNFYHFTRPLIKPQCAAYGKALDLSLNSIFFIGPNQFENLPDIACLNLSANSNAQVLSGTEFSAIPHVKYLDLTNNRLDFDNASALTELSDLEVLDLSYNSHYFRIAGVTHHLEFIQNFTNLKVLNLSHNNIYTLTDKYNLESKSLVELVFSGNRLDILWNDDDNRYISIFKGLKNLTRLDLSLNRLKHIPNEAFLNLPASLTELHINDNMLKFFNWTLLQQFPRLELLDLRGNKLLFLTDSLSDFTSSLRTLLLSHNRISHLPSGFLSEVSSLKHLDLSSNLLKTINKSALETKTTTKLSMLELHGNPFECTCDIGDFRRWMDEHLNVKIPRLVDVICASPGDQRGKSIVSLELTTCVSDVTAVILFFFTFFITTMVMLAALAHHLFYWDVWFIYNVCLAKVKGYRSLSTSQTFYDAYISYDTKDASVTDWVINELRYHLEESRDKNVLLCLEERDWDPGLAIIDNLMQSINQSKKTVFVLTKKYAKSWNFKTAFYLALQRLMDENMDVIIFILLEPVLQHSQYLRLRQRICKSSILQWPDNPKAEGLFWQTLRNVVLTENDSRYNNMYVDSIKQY
Experimental: (§1) HEK-Blue™-cells (Invivogen) overexpressing human TLR7, TLR8 or TLR9 receptors were used for screening inhibitors of these receptors using an inducible SEAP (secreted embryonic alkaline phosphatase) reporter gene under the control of the IFN-β minimal promoter fused to five NF-κB and AP-1-binding sites. Briefly, cells are seeded into Greiner 384 well plates (15000 cells per well for TLR7, 20,000 for TLR8 and 25,000 for TLR9) and then treated with test compounds in DMSO to yield a final dose response concentration range of 0.05 nM-50 μM. After a 30 minute compound pre-treatment at room temperature, the cells are then stimulated with a TLR7 ligand (gardiquimod at a final concentration of 7.5 μM), TLR8 ligand (R848 at a final concentration of 15.9 μM) or TLR9 ligand (ODN2006 at a final concentration of 5 nM) to activate NF-κB and AP-1 which induce the production of SEAP. After a 22 hour incubation at 37° C., 5% CO2, SEAP levels are determined with the addition of HEK-Blue™ Detection reagent (Invivogen), a cell culture medium that allows for detection of SEAP, according to manufacturer's specifications. The percent inhibition is determined as the % reduction in the HEK-Blue signal present in wells treated with agonist plus DMSO alone compared to wells treated with a known inhibitor.

human TLR7 = biological target: T2, human TLR7 (Homo sapiens, UniProt Q9NYK1); experiment: TLR7 inhibition reporter assay (HEK-Blue cells, SEAP reporter); conditions: HEK-Blue cells overexpressing human TLR7; stimulated with gardiquimod 7.5 μM; SEAP read after 22 hour; dose range 0.05 nM-50 μM
T2 construct: host or cells: HEK-Blue cells
T2 sequence (Q9NYK1 27-1049): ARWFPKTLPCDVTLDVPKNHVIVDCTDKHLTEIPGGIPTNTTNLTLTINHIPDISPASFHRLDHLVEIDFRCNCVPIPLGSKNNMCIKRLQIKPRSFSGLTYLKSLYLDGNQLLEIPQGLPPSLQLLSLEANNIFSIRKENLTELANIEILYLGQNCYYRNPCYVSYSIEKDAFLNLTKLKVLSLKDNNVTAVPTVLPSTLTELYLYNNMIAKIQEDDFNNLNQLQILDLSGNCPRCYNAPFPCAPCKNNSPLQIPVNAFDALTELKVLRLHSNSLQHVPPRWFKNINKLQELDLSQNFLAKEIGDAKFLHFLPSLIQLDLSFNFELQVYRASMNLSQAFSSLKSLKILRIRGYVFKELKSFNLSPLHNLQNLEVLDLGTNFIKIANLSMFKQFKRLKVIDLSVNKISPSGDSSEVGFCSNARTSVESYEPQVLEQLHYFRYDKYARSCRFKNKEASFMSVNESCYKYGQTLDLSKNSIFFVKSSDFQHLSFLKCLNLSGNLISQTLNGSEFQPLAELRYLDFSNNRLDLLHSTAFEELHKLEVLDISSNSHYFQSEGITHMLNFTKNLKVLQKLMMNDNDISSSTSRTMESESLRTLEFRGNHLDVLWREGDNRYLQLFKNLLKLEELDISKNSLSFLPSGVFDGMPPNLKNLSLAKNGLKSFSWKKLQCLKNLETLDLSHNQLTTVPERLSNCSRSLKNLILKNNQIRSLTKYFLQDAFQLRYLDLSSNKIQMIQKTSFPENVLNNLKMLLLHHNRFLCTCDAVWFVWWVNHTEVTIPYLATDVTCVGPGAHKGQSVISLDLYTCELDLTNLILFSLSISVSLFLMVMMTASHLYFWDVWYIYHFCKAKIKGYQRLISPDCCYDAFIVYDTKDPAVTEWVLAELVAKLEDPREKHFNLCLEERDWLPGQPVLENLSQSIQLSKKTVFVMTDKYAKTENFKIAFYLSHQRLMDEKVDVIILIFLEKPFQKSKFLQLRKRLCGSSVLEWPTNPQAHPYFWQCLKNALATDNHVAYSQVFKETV
Experimental: as §1

human TLR9 = biological target: T3, human TLR9 (Homo sapiens, UniProt Q9NR96); experiment: TLR9 inhibition reporter assay (HEK-Blue cells, SEAP reporter); conditions: HEK-Blue cells overexpressing human TLR9; stimulated with ODN2006 5 nM; SEAP read after 22 hour; dose range 0.05 nM-50 μM
T3 construct: host or cells: HEK-Blue cells
T3 sequence (Q9NR96 26-1032): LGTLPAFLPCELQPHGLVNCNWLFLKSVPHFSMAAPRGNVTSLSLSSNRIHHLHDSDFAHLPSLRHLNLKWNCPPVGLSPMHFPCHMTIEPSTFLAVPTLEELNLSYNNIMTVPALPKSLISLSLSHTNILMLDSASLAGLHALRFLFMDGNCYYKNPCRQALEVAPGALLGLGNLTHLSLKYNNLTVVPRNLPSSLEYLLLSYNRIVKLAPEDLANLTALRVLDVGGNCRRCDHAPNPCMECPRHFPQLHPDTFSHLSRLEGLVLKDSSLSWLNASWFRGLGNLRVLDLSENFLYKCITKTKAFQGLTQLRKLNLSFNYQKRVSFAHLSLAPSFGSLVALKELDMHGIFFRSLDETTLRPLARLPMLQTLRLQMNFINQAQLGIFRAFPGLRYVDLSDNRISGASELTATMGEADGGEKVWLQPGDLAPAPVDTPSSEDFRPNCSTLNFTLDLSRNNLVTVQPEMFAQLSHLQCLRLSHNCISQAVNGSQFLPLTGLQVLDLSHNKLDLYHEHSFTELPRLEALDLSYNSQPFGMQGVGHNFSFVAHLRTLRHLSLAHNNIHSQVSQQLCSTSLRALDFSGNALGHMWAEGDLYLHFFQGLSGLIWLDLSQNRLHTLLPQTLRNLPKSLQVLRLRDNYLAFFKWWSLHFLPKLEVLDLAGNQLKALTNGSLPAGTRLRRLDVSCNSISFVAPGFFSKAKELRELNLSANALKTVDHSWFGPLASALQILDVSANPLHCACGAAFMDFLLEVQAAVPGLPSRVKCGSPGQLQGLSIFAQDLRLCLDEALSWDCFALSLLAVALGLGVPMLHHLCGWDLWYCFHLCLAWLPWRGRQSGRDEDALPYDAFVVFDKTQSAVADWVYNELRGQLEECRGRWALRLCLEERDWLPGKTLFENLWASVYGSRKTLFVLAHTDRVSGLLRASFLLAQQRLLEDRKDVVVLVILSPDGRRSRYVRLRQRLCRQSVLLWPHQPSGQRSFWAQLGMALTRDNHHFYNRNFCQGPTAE
Experimental: as §1

| SMILES | IC50 (human TLR8) [µM] | IC50 (human TLR7) [µM] | IC50 (human TLR9) [µM] |
| --- | --- | --- | --- |
| CC(C)N1CCN(c2ccc(-c3ccc4[nH]c(=O)c(-c5cc(F)ccc5F)cc4c3)cc2)CC1 [Example 20, 3-(2,5-difluorophenyl)-6-{4-[4-(propan-2-vi)piperazin-1-yl]phenyl}-1,2-dihydroquinolin-2-one] | 5.41 | 1.56 | 0.203 |
| CC(C)N1CCN(c2ccc(-c3ccc4c(c3)cc(-c3ccc(N(C)S(C)(=O)=O)cc3)c(=O)n4C)cc2)CC1 [Example 23, N-methyl-N-[4-(1-methyl-2-oxo-6-{4-[4-(propan-2-yl)piperazin-1-yl]phenyl}-1,2-dihydroquinolin-3-yl)phenyl]methanesulfonamide] | 36 | 5.51 | 0.221 |
| CC(C)N1CCN(c2ccc(-c3ccc4[nH]c(=O)c(-c5cccc(F)c5F)cc4c3)cc2)CC1 [Example 24, 3-(2,3-difluorophenyl)-6-{4-[4-(propan-2-yl)piperazin-1-yl]phenyl}-1,2-dihydroquinolin-2-one] | 15.2 | 2 | 0.224 |
| CC(C)C(=O)Nc1ccc(-c2cc3cc(-c4ccc(N5CCN(C(C)C)CC5)cc4)ccc3n(C)c2=O)cc1 [Example 26, 2-methyl-N-[4-(1-methyl-2-oxo-6-{4-[4-(propan-2-yl)piperazin-1-yl]phenyl}-1,2-dihydroquinolin-3-yl)phenyl]propanamide] | 0.673 | 1.8 | 0.231 |
| CC(C)N1CCN(c2ccc(-c3ccc4c(c3)cc(-c3ccc(S(C)(=O)=O)cc3)c(=O)n4C)cc2)CC1 [Example 27, 3-(4-methanesulfonylphenyl)-1-methyl-6-{4-[4-(propan-2-yl)piperazin-1-yl]phenyl}-1,2-dihydroquinolin-2-one] | 1.04 | 2.5 | 0.233 |
| COC(=O)c1ccc(-c2cc3cc(-c4ccc(N5CCN(C(C)C)CC5)cc4)ccc3[nH]c2=O)cc1 [Example 28, methyl 4-(2-oxo-6-{4-[4-(propan-2-yl)piperazin-1-yl]phenyl}-1,2-dihydroquinolin-3-yl)benzoate] | ≥ 50 | ≥ 50 | 2.28 |

The remaining lines, values ahead:

| IC50 (human TLR8) [µM] | IC50 (human TLR7) [µM] | IC50 (human TLR9) [µM] | SMILES |
| --- | --- | --- | --- |
| 0.949 | 0.338 | 0.171 | CC(C)N1CCN(c2ccc(-c3ccc4[nH]c(=O)c(-c5ccncc5)cc4c3)cc2)CC1 [Example 17, 6-{4-[4-(propan-2-yl)piperazin-1-yl]phenyl}-3-(pyridin-4-yl)-1,2-dihydroquinolin-2-one] |
| 16.3 | 16.7 | 0.19 | CC(C)N1CCN(c2ccc(-c3ccc4[nH]c(=O)c(-c5ccccc5)cc4c3)cc2)CC1 [Example 18, 3-phenyl-6-{4-[4-(propan-2-yl)piperazin-1-yl]phenyl}-1,2-dihydroquinolin-2-one] |
| ≥ 50 | 2.4 | 0.2 | CC(C)N1CCN(c2ccc(-c3ccc4[nH]c(=O)c(-c5ccc(C(=O)N6CCCC6(C)C)cc5)cc4c3)cc2)CC1 [Example 19, 3-[4-(2,2-dimethylpyrrolidine-1-carbonyl)phenyl]-6-{4-[4-(propan-2-yl)piperazin-1-yl]phenyl}-1,2-dihydroquinolin-2-one] |
| ≥ 50 | ≥ 50 | 0.214 | CCCC(=O)Nc1ccc(-c2cc3cc(-c4ccc(N5CCN(C(C)C)CC5)cc4)ccc3[nH]c2=O)cc1 [Example 21, N-[4-(2-oxo-6-{4-[4-(propan-2-yl)piperazin-1-yl]phenyl}-1,2-dihydroquinolin-3-yl)phenyl]butanamide] |
| ≥ 50 | ≥ 50 | 0.216 | CC(C)N1CCN(c2ccc(-c3ccc4[nH]c(=O)c(-c5ccc(N6CC[C@H](F)C6)cc5)cc4c3)cc2)CC1 [Example 22, 3-{4-[(3S)-3-fluoropyrrolidin-1-yl]phenyl}-6-{4-[4-(propan-2-yl)piperazin-1-yl]phenyl}-1,2-dihydroquinolin-2-one] |
| 1.39 | 6.48 | 0.226 | Cc1ccccc1-c1cc2cc(-c3ccc(N4CCN(C(C)C)CC4)cc3)ccc2[nH]c1=O [Example 25, 3-(2-methylphenyl)-6-{4-[4-(propan-2-yl)piperazin-1-yl]phenyl}-1,2-dihydroquinolin-2-one] |
